Bounds are passed on as bounds.

The target in the test is LMPTP-A (Low Molecular Weight Protein Tyrosine Phosphatase-A) enzyme (Homo sapiens (Human), UniProt P24666). The test is described as follows: LMPTP primary screening / LMPTP (OMFP) enzyme inhibition assay, fluorescence intensity. Format: biochemical. The conditions noted are these: LMPTP-A, OMFP substrate, method of Example 2; read-out: IC50. The essentials: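 0.625 nM LMPTP-A with 400 μM OMFP substrate in 50 mM Bis-Tris pH 6.0, 1 mM DTT, 0.01% Triton X-100, […]. Compounds at 20 μM final. Incubated 50 min at room temperature in the dark; fluorescence intensity read.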
Sequence of LMPTP-A (Low Molecular Weight Protein Tyrosine Phosphatase-A) enzyme (P24666 whole entry): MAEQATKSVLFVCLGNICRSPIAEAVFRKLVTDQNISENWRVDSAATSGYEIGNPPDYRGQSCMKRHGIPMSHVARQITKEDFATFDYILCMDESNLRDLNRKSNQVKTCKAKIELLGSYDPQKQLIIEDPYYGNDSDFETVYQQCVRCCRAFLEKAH
As usually defined, the IC50 is the concentration at which inhibition is half-maximal. In the case of `COc1ccc(-c2cc(Nc3ccc(CC4CCNCC4)cc3)c3ccccc3n2)cc1` [Compound I32, [2-(4-methoxyphenyl)(4-quinolyl)][4-(4-piperidylmethyl)phenyl]amine], the IC50 fell in the range of 0.801 to 5 µM.

On to `CCN1CCC(Cc2ccc(Nc3cc(-c4ccc(OC)cc4)nc4ccccc34)cc2)CC1` [Compound I33, {4-[(1-ethyl(4-piperidyl))methyl]phenyl}[2-(4-methoxyphenyl)(4-quinolyl)]amine], for which the IC50 lay within 0.801 to 5 µM.

For the compound `COc1ccc(-c2cc(Nc3ccc(CC4CCN(C(C)=O)CC4)cc3)c3ccccc3n2)cc1` [Compound I34, 1-acetyl-4-[(4-{[2-(4-methoxyphenyl)(4-quinolyl)]amino}phenyl)methyl]piperidine], the IC50 lay in the range of 0.801 to 5 µM.

As for `COc1ccc(-c2cc(Nc3ccc(CC4CCN(S(C)(=O)=O)CC4)cc3)c3ccccc3n2)cc1` [Compound I35, 4-[(4-{[2-(4-methoxyphenyl)(4-quinolyl)]amino}phenyl)methyl]-1-(methylsulfonyl)piperidine], the IC50 fell in the range of 0.801 to 5 µM.

As to `COc1ccc(-c2cc(Nc3cccc(CC#N)c3)c3ccccc3n2)cc1` [Compound I36, 2-(3-{[2-(4-methoxyphenyl)-4-quinolyl]amino}phenyl)ethanenitrile], the IC50 is 0.801 to 5 µM.

In the case of `COc1ccc(-c2cc(Nc3ccccc3CC3CCN(C)CC3)c3ccccc3n2)cc1` [Compound I37, [2-(4-methoxyphenyl)(4-quinolyl)]{2-[(1-methyl(4-piperidyl))methyl]phenyl}amine], the IC50 was > 5 µM.

Consider `COc1ccc(-c2cc(Nc3ccccc3CC3CCNCC3)c3ccccc3n2)cc1` [Compound I38, [2-(4-methoxyphenyl)(4-quinolyl)][2-(4-piperidylmethyl)phenyl]amine], for which the IC50 was > 5 µM.

As to `COc1ccc(-c2cc(Nc3cccc(CN(C)C)c3)c3ccccc3n2)cc1` [Compound I39, [(3-{[2-(4-methoxyphenyl)(4-quinolyl)]amino}phenyl)methyl]dimethylamine], the IC50 was in the range of 0.801 to 5 µM.

Take `FC(F)(F)c1ccc(C(F)(F)F)c(-c2cc(Nc3cccc(CC4CCN(Cc5ccccc5)CC4)c3)c3ccccc3n2)c1` [Compound I40, {2-[2,5-bis(trifluoromethyl)phenyl](4-quinolyl)}(3-{[1-benzyl(4-piperidyl)]methyl}phenyl)amine]: the IC50 was > 5 µM.

With `FC(F)(F)c1ccc(C(F)(F)F)c(-c2cc(Nc3cccc(CC4CCNCC4)c3)c3ccccc3n2)c1` [Compound I41, {2-[2,5-bis(trifluoromethyl)phenyl](4-quinolyl)}[3-(4-piperidylmethyl)phenyl]amine], the IC50 was in the range of 0.801 to 5 µM.

Take `CN(C)Cc1cccc(Nc2cc(-c3cc(C(F)(F)F)cc(C(F)(F)F)c3)nc3ccccc23)c1` [Compound I42, {[3-({2-[3,5-bis(trifluoromethyl)phenyl](4-quinolyl)}amino)phenyl]methyl}dimethylamine]: the IC50 was > 5 µM.

For `FC(F)(F)c1cc(-c2cc(Nc3ccc(CN4CCCCC4)cc3)c3ccccc3n2)cc(C(F)(F)F)c1` [Compound I43, {2-[3,5-bis(trifluoromethyl)phenyl](4-quinolyl)}[4-(piperidylmethyl)phenyl]amine], the IC50 is > 5 µM.

As for `FC(F)(F)c1cc(-c2cc(Nc3cccc(CN4CCCC4)c3)c3ccccc3n2)cc(C(F)(F)F)c1` [Compound I44, {2-[3,5-bis(trifluoromethyl)phenyl](4-quinolyl)}[3-(pyrrolidinylmethyl)phenyl]amine], the IC50 was > 5 µM.

With `CN(C)Cc1cc(CO)cc(Nc2cc(-c3cccc(Cl)c3)nc3ccccc23)c1` [Compound I45, (5-[(dimethylamino)methyl]-3-{[2-(3-chlorophenyl)(4-quinolyl)]amino}phenyl)methan-1-ol], the IC50 is 0.801 to 5 µM.

Take `CN1CCCC1CCNc1cc(-c2cc(C(F)(F)F)cc(C(F)(F)F)c2)nc2ccccc12` (stereo not drawn) [Compound I46, {2-[3,5-bis(trifluoromethyl)phenyl](4-quinolyl)}[2-(1-methylpyrrolidin-2-yl)ethyl]amine]: the IC50 is > 5 µM.

These data come from patent publication US10626094B2 (La Jolla Institute of Allergy & Immunology, priority 2014, dated 2020).
